# Test system: Hepatotoxicity
# Experiment: FDA HLAED, serum glutamic oxaloacetic transaminase (SGOT) increase
# Conditions: human
# For GGT Increase - Index Value in this document: reference of the scale not given here.
# For LDH Increase - Index Value in this document: reference of the scale not given here.
SMILES,SGOT Increase - Activity Score,SGOT Increase - Index Value,SGOT Increase - Number of Reports
COC(=O)C1=C(C)NC(C)=C(C(=O)OC)C1c1ccccc1[N+](=O)[O-] [NIFEDIPINE],Inactive,0.6,>= 4
CC1(C)NC(=O)N(c2ccc([N+](=O)[O-])c(C(F)(F)F)c2)C1=O [NILUTAMIDE],Inactive,19.5,< 4
COCCOC(=O)C1=C(C)NC(C)=C(C(=O)OC(C)C)C1c1cccc([N+](=O)[O-])c1 (configuration not stated) [NIMODIPINE],Active,23.4,>= 4
COC(=O)C1=C(C)NC(C)=C(C(=O)OCC(C)C)C1c1ccccc1[N+](=O)[O-] (configuration not stated) [NISOLDIPINE],Inactive,3.2,< 4
O=C1CN(/N=C/c2ccc([N+](=O)[O-])o2)C(=O)N1 [NITROFURANTOIN],Active,52,>= 4
CNC(=C[N+](=O)[O-])NCCSCc1csc(CN(C)C)n1 [NIZATIDINE],Marginally Active,3,>= 4
CC(Cc1ccc(O)c(O)c1)C(C)Cc1ccc(O)c(O)c1 (configuration not stated) [NORDIHYDROGUAIARETIC ACID],Inactive,0,< 4
CCn1cc(C(=O)O)c(=O)c2cc(F)c(N3CCNCC3)cc21 [NORFLOXACIN],Active,5.6,>= 4
CC1COc2c(N3CCN(C)CC3)c(F)cc3c(=O)c(C(=O)O)cn1c23 (configuration not stated) [OFLOXACIN],Inactive,1.9,>= 4

# Test system: Hepatotoxicity
# Experiment: FDA HLAED, liver enzyme composite activity
# Conditions: human
SMILES,Composite Activity - Active,Composite Activity - Marginal,Composite Activity - Score
COC(=O)C1=C(C)NC(C)=C(C(=O)OC)C1c1ccccc1[N+](=O)[O-] [NIFEDIPINE],0,0,Inactive
COCCOC(=O)C1=C(C)NC(C)=C(C(=O)OC(C)C)C1c1cccc([N+](=O)[O-])c1 (configuration not stated) [NIMODIPINE],5,0,Active
COC(=O)C1=C(C)NC(C)=C(C(=O)OCC(C)C)C1c1ccccc1[N+](=O)[O-] (configuration not stated) [NISOLDIPINE],0,0,Inactive
CNC(=C[N+](=O)[O-])NCCSCc1csc(CN(C)C)n1 [NIZATIDINE],0,1,Inactive
CC(Cc1ccc(O)c(O)c1)C(C)Cc1ccc(O)c(O)c1 (configuration not stated) [NORDIHYDROGUAIARETIC ACID],0,0,Inactive
CC1COc2c(N3CCN(C)CC3)c(F)cc3c(=O)c(C(=O)O)cn1c23 (configuration not stated) [OFLOXACIN],0,0,Inactive

# Same assay, conditions: human, Liver
SMILES,Composite Activity - Active,Composite Activity - Marginal,Composite Activity - Score
CC1(C)NC(=O)N(c2ccc([N+](=O)[O-])c(C(F)(F)F)c2)C1=O [NILUTAMIDE],0,0,Inactive
O=C1CN(/N=C/c2ccc([N+](=O)[O-])o2)C(=O)N1 [NITROFURANTOIN],5,0,Active
CCn1cc(C(=O)O)c(=O)c2cc(F)c(N3CCNCC3)cc21 [NORFLOXACIN],2,2,Active

# Test system: Hepatotoxicity
# Experiment: FDA HLAED, serum glutamic pyruvic transaminase (SGPT) increase
# Conditions: human
SMILES,SGPT Increase - Activity Score,SGPT Increase - Index Value,SGPT Increase - Number of Reports
COC(=O)C1=C(C)NC(C)=C(C(=O)OC)C1c1ccccc1[N+](=O)[O-] [NIFEDIPINE],Inactive,0.4,>= 4
CC1(C)NC(=O)N(c2ccc([N+](=O)[O-])c(C(F)(F)F)c2)C1=O [NILUTAMIDE],Inactive,19.5,< 4
COCCOC(=O)C1=C(C)NC(C)=C(C(=O)OC(C)C)C1c1cccc([N+](=O)[O-])c1 (configuration not stated) [NIMODIPINE],Active,29.3,>= 4
COC(=O)C1=C(C)NC(C)=C(C(=O)OCC(C)C)C1c1ccccc1[N+](=O)[O-] (configuration not stated) [NISOLDIPINE],Inactive,1.6,< 4
O=C1CN(/N=C/c2ccc([N+](=O)[O-])o2)C(=O)N1 [NITROFURANTOIN],Active,27.4,>= 4
CNC(=C[N+](=O)[O-])NCCSCc1csc(CN(C)C)n1 [NIZATIDINE],Inactive,2.4,>= 4
CC(Cc1ccc(O)c(O)c1)C(C)Cc1ccc(O)c(O)c1 (configuration not stated) [NORDIHYDROGUAIARETIC ACID],Inactive,0,< 4
CCn1cc(C(=O)O)c(=O)c2cc(F)c(N3CCNCC3)cc21 [NORFLOXACIN],Marginally Active,3,>= 4
CC1COc2c(N3CCN(C)CC3)c(F)cc3c(=O)c(C(=O)O)cn1c23 (configuration not stated) [OFLOXACIN],Inactive,2.1,>= 4

# Test system: Hepatotoxicity
# Experiment: FDA HLAED, alkaline phosphatase increase
# Conditions: human
SMILES,Alkaline Phosphatase Increase - Activity Score,Alkaline Phosphatase Increase - Index Value,Alkaline Phosphatase Increase - Number of Reports
COC(=O)C1=C(C)NC(C)=C(C(=O)OC)C1c1ccccc1[N+](=O)[O-] [NIFEDIPINE],Inactive,0.3,< 4
CC1(C)NC(=O)N(c2ccc([N+](=O)[O-])c(C(F)(F)F)c2)C1=O [NILUTAMIDE],Inactive,0,< 4
COCCOC(=O)C1=C(C)NC(C)=C(C(=O)OC(C)C)C1c1cccc([N+](=O)[O-])c1 (configuration not stated) [NIMODIPINE],Active,17.6,< 4
COC(=O)C1=C(C)NC(C)=C(C(=O)OCC(C)C)C1c1ccccc1[N+](=O)[O-] (configuration not stated) [NISOLDIPINE],Inactive,0,< 4
O=C1CN(/N=C/c2ccc([N+](=O)[O-])o2)C(=O)N1 [NITROFURANTOIN],Active,32.8,>= 4
CNC(=C[N+](=O)[O-])NCCSCc1csc(CN(C)C)n1 [NIZATIDINE],Inactive,1.4,>= 4
CC(Cc1ccc(O)c(O)c1)C(C)Cc1ccc(O)c(O)c1 (configuration not stated) [NORDIHYDROGUAIARETIC ACID],Inactive,0,< 4
CCn1cc(C(=O)O)c(=O)c2cc(F)c(N3CCNCC3)cc21 [NORFLOXACIN],Active,6.3,>= 4
CC1COc2c(N3CCN(C)CC3)c(F)cc3c(=O)c(C(=O)O)cn1c23 (configuration not stated) [OFLOXACIN],Inactive,1.2,>= 4

# Test system: Hepatotoxicity
# Experiment: FDA HLAED, gamma-glutamyl transferase (GGT) increase
# Conditions: human
SMILES,GGT Increase - Activity Score,GGT Increase - Index Value,GGT Increase - Number of Reports
COC(=O)C1=C(C)NC(C)=C(C(=O)OC)C1c1ccccc1[N+](=O)[O-] [NIFEDIPINE],Inactive,0,< 4
CC1(C)NC(=O)N(c2ccc([N+](=O)[O-])c(C(F)(F)F)c2)C1=O [NILUTAMIDE],Inactive,0,< 4
COCCOC(=O)C1=C(C)NC(C)=C(C(=O)OC(C)C)C1c1cccc([N+](=O)[O-])c1 (configuration not stated) [NIMODIPINE],Active,17.6,< 4
COC(=O)C1=C(C)NC(C)=C(C(=O)OCC(C)C)C1c1ccccc1[N+](=O)[O-] (configuration not stated) [NISOLDIPINE],Inactive,0,< 4
O=C1CN(/N=C/c2ccc([N+](=O)[O-])o2)C(=O)N1 [NITROFURANTOIN],Active,16.4,>= 4
CNC(=C[N+](=O)[O-])NCCSCc1csc(CN(C)C)n1 [NIZATIDINE],Inactive,0.8,>= 4
CC(Cc1ccc(O)c(O)c1)C(C)Cc1ccc(O)c(O)c1 (configuration not stated) [NORDIHYDROGUAIARETIC ACID],Inactive,0,< 4
CCn1cc(C(=O)O)c(=O)c2cc(F)c(N3CCNCC3)cc21 [NORFLOXACIN],Inactive,0,< 4
CC1COc2c(N3CCN(C)CC3)c(F)cc3c(=O)c(C(=O)O)cn1c23 (configuration not stated) [OFLOXACIN],Inactive,0.5,< 4

# Test system: Hepatotoxicity
# Experiment: FDA HLAED, lactate dehydrogenase (LDH) increase
# Conditions: human
SMILES,LDH Increase - Activity Score,LDH Increase - Index Value,LDH Increase - Number of Reports
COC(=O)C1=C(C)NC(C)=C(C(=O)OC)C1c1ccccc1[N+](=O)[O-] [NIFEDIPINE],Inactive,0.1,< 4
CC1(C)NC(=O)N(c2ccc([N+](=O)[O-])c(C(F)(F)F)c2)C1=O [NILUTAMIDE],Inactive,0,< 4
COCCOC(=O)C1=C(C)NC(C)=C(C(=O)OC(C)C)C1c1cccc([N+](=O)[O-])c1 (configuration not stated) [NIMODIPINE],Active,23.4,>= 4
COC(=O)C1=C(C)NC(C)=C(C(=O)OCC(C)C)C1c1ccccc1[N+](=O)[O-] (configuration not stated) [NISOLDIPINE],Inactive,0,< 4
O=C1CN(/N=C/c2ccc([N+](=O)[O-])o2)C(=O)N1 [NITROFURANTOIN],Active,35.6,>= 4
CNC(=C[N+](=O)[O-])NCCSCc1csc(CN(C)C)n1 [NIZATIDINE],Inactive,0.5,>= 4
CC(Cc1ccc(O)c(O)c1)C(C)Cc1ccc(O)c(O)c1 (configuration not stated) [NORDIHYDROGUAIARETIC ACID],Inactive,0,< 4
CCn1cc(C(=O)O)c(=O)c2cc(F)c(N3CCNCC3)cc21 [NORFLOXACIN],Marginally Active,3.7,>= 4
CC1COc2c(N3CCN(C)CC3)c(F)cc3c(=O)c(C(=O)O)cn1c23 (configuration not stated) [OFLOXACIN],Inactive,1.2,>= 4

# From ChEMBL document CHEMBL1697781, “Assessment of the health effects of chemicals in humans: II. Construction of an adverse effects database for QSAR modeling” (Curr Drug Discov Technol, 2004)
